Results published in patent US9757408B2 (Hayashibara Co., Ltd., priority 2010, dated 2017).
Marks after values point to notes of the source that are not given here.

What was measured:
[1] = system: IFN-γ production of spleen cells; assay: IFN-γ production of spleen cells stimulated with anti-CD3 antibody, from gel-treated mice (Experiment 16); type: in vivo, NC/Nga mice; conditions: for production level of IFN-γ of spleen cells stimulated with the anti-CD3 antibody: compared to mice applied with gel prepared by adding refined water (Experiment group 1); for Content of IFN-γ: supernatant of spleen cells stimulated with anti-CD3 antibody, picryl chloride-sensitized mice applied with gel
Experimental: (§1) On Friday of the 6th week of the induction (46th day after initiating the application), all the mice were sacrificed, followed by isolating their spleens and collecting spleen cells in usual manner. […] To each well 2 μg/mL of “Purified Mouse CD3ε Monoclonal Antibody”, a product name of an anti-CD3 antibody, commercialized by Cosmo Bio Co., Ltd., Tokyo, Japan, was added, and the cells were incubated at 37° C. for three days in a 5% v/v CO2 incubator, followed by assaying the levels of cytokines in each supernatant thereof.
(§2) The results are in Table 19 in parallel.

[2] = system: TNF-α production from NHEK cells; assay: TNF-α production from NHEK cells irradiated with ultraviolet B (Experiment 17); type: cell-based, human; conditions: for TNF-α: NHEK cells, stimulation by ultraviolet rays; for production of TNF-α from NHEK cells induced by ultraviolet rays: UVB 40 mJ/cm^2, supernatant at six hours
Experimental: (§3) “CELLMATRIX TYPE IV”, a product name of collagen for tissue culture commercialized by Nitta Gelatin Inc., Osaka, Japan, which had been diluted with PBS(K-) by 10 times, was previously placed in “FALCON 35-3001”, a product name of 35 mm petri dish commercialized by Becton Dickinson and Company, NJ, USA, in an amount of 1 mL/plate, and then allowed to stand at ambient temperature for 10 min, followed by removing an excessive amount of CELLMATRIX, drying the petri dish in air, and washing it thrice with PBS(K-). […] The cells were cultured at 37° C. in a 5% v/v CO2 incubator. On the 2nd and 4th days after the cell inoculation, the medium was replaced with EpiLife medium free of EDGS (1 mL/plate). On the 5th day after the cell inoculation, the supernatant was removed, and the petri dish was washed twice by adding 1 mL/petri dish of Hanks' balanced salt solution (called “HBSS (−) buffer”, hereinafter). Further, 2 mL/petri dish of HBSS (−) buffer was added to the petri dish which was then placed in the position 15 cm apart from an ultraviolet ray light source and irradiated with 40 mJ/cm^2 of ultraviolet B radiation. […] As an ultraviolet ray light source, “NS-8F”, a light source for actual use commercialized by Sanwa Medical Co., Ltd., Okayama, Japan, equipped with an ultraviolet B radiation lamp was used, and the radiation dose was measured on “UVR-305/365D (II)”, an ultraviolet ray meter commercialized by Topcon Corporation, Tokyo, Japan. TNF-α was assayed by the same method as in Experiment 2. The remaining other cytokines were assayed with an IL-1α assay kit, commercialized by R & D Systems Inc., MN, USA, and an IL-8 assay kit commercialized by BioLegend, CA, USA.

[3] = system: TNF-α production from mouse intraperitoneal macrophages; assay: IC50 for TNF-α production from mouse macrophages, LPS + IFN-γ, nucleic acid derivatives (Experiment 19); type: cell-based; conditions: for IC50: Mus musculus, Macrophage, 20 h, read-out: IC50 Concentration TNF-α
From the text: (§4) After completion of the culture, the supernatant in each well was collected and assayed for cytokines and prostaglandin E2 (called “PGE2”, hereinafter) with ELISA.

[4] = system: IL-6 production of spleen cells; assay: IL-6 production of spleen cells stimulated with anti-CD3 antibody, from gel-treated mice (Experiment 16); type: in vivo, NC/Nga mice; conditions: for production level of IL-6 of spleen cells stimulated with the anti-CD3 antibody: compared to mice applied with gel prepared by adding refined water (Experiment group 1); for Content of IL-6: supernatant of spleen cells stimulated with anti-CD3 antibody, picryl chloride-sensitized mice applied with gel
Experimental: as §1, §2

[5] = system: NHEK cells; assay: Proliferation of NHEK cells irradiated with ultraviolet rays, fluorescent intensity (Experiment 17); type: cell-based, human; conditions: stimulation by ultraviolet rays
Experimental: as §3

[6] = system: IL-6 production from mouse intraperitoneal macrophages; assay: IC50 for IL-6 production from mouse macrophages, LPS + IFN-γ (Experiment 19); type: cell-based; conditions: for IC50: Mus musculus, Macrophage, 20 h, read-out: IC50 Concentration IL-6
From the text: as §4

[7] = system: IL-1α production from NHEK cells; assay: IL-1α production from NHEK cells irradiated with ultraviolet B (Experiment 17); type: cell-based, human; conditions: for IL-1α: NHEK cells, stimulation by ultraviolet rays; for production of IL-1α from NHEK cells augmented by ultraviolet rays: UVB 40 mJ/cm^2, supernatant at six hours
Experimental: as §3

[8] = system: IL-5 production of spleen cells; assay: IL-5 production of spleen cells stimulated with anti-CD3 antibody, from gel-treated mice (Experiment 16); type: in vivo, NC/Nga mice; conditions: for production level of IL-5 of spleen cells stimulated with the anti-CD3 antibody: compared to mice applied with gel prepared by adding refined water (Experiment group 1); for Content of IL-5: supernatant of spleen cells stimulated with anti-CD3 antibody, picryl chloride-sensitized mice applied with gel
Experimental: as §1, §2

[9] = system: NHEK cells; assay: Cytotoxicity (released LDH) of NHEK cells irradiated with ultraviolet B (Experiment 17); type: cell-based, human; conditions: for LDH Activity: NHEK cells, stimulation by ultraviolet rays
[10] = system: picryl chloride-sensitized mice; assay: Picryl chloride-sensitized mice atopic dermatitis, skin score (Experiment 16); type: in vivo, NC/Nga mice; conditions: for Skin score, 21 days after the day of sensitizing with picryl chloride: gel on dorsal skin twice a day (ANO 14 mg/mL, AN or IN 13 mg/mL, prednisolone 6.7 mg/mL from 3rd induction week), day 21; for Skin score, 24 days after the day of sensitizing with picryl chloride / Skin score, 28 days after the day of sensitizing with picryl chloride / Skin score, 31 days after the day of sensitizing with picryl chloride / Skin score, 35 days after the day of sensitizing with picryl chloride / Skin score, 39 days after the day of sensitizing with picryl chloride / Skin score, 42 days after the day of sensitizing with picryl chloride / Skin score, 45 days after the day of sensitizing with picryl chloride: gel on dorsal skin twice a day (ANO 14 mg/mL, AN or IN 13 mg/mL, prednisolone 6.7 mg/mL); for Skin score, 24 days after the day of sensitizing with picryl chloride: day 24; for Skin score, 28 days after the day of sensitizing with picryl chloride: day 28; for Skin score, 31 days after the day of sensitizing with picryl chloride: day 31; for Skin score, 35 days after the day of sensitizing with picryl chloride: day 35; for Skin score, 39 days after the day of sensitizing with picryl chloride: day 39; for Skin score, 42 days after the day of sensitizing with picryl chloride: day 42; for Skin score, 45 days after the day of sensitizing with picryl chloride: day 45
From the text: as §2

[11] = system: PGE2 production from mouse intraperitoneal macrophages; assay: IC50 for PGE2 production from mouse macrophages, LPS + IFN-γ (Experiment 19); type: cell-based; conditions: for IC50: Mus musculus, Macrophage, 20 h, read-out: IC50 Concentration PGE2
From the text: as §4

[12] = mouse intraperitoneal macrophages stimulated with LPS and IFN-γ

Row | Compound | production level of IFN-γ of spleen cells stimulated with the anti-CD3 antibody [1] | Content of IFN-γ [1] | TNF-α ([2]; 1 μM) | TNF-α ([2]; 5 μM) | TNF-α ([2]; 10 μM) | production of TNF-α from NHEK cells induced by ultraviolet rays [2] | IC50 [3] | production level of IL-6 of spleen cells stimulated with the anti-CD3 antibody [4] | Content of IL-6 [4] | Proliferation ([5]; 1 μM) | Proliferation ([5]; 5 μM) | Proliferation ([5]; 10 μM) | IL-1α ([7]; 1 μM) | IL-1α ([7]; 5 μM) | IL-1α ([7]; 10 μM) | production of IL-1α from NHEK cells augmented by ultraviolet rays [7] | production level of IL-5 of spleen cells stimulated with the anti-CD3 antibody [8] | Content of IL-5 [8] | LDH Activity ([9]; 1 μM) | LDH Activity ([9]; 5 μM) | also measured
1 | Nc1ncnc2c1ncn2[C@@H]1O[C@H](CO)[C@@H](O)[C@H]1O [AN, adenosine] | showed no difference | 12.1 pg/mL | 144 pg/mL | 138 pg/mL | 138 pg/mL | did not influence | 17.4 µM | showed no difference | 192 ng/mL | 5701 Fluorescent intensity | 5683 Fluorescent intensity | 5578 Fluorescent intensity | 243 pg/mL | 244 pg/mL | 239 pg/mL | did not influence | showed no difference | 225 ng/mL | 0.35 absorbance | 0.36 absorbance | inhibitory action on the production of inflammatory cytokines (in words) [3, 12]: only a weak inhibitory action; IC50 [6]: 50.1 µM; LDH Activity ([9]; 10 μM): 0.35 absorbance; Skin score, 21 days after the day of sensitizing with picryl chloride [10]: 0.50; Skin score, 24 days after the day of sensitizing with picryl chloride [10]: 0.50; Skin score, 28 days after the day of sensitizing with picryl chloride [10]: 2.75; Skin score, 31 days after the day of sensitizing with picryl chloride [10]: 3.55; Skin score, 35 days after the day of sensitizing with picryl chloride [10]: 5.56; Skin score, 39 days after the day of sensitizing with picryl chloride [10]: 5.78; Skin score, 42 days after the day of sensitizing with picryl chloride [10]: 6.22; Skin score, 45 days after the day of sensitizing with picryl chloride [10]: 5.50; IC50 [11]: > 200 µM
2 | Nc1c2ncn([C@@H]3O[C@H](CO)[C@@H](O)[C@H]3O)c2nc[n+]1[O-] [ANO, adenosine N1-oxide] | significantly lower | 8.75* pg/mL | 119 pg/mL | 76 pg/mL | 76 pg/mL | inhibited | 0.3 µM | significantly lower | 129* ng/mL | 5540 Fluorescent intensity | 5607 Fluorescent intensity | 5682 Fluorescent intensity | 203 pg/mL | 173 pg/mL | 140 pg/mL | inhibited | tended to decrease | 157 ng/mL | 0.32 absorbance | 0.23 absorbance | IC50 [6]: 0.9 µM; inhibition of the production of IL-6 (in words) [6, 12]: strongly inhibited; LDH Activity ([9]; 10 μM): 0.14 absorbance; LDH released from NHEK cells by the stimulation of ultraviolet rays ([9]; UVB 40 mJ/cm^2, supernatant at four hours): inhibited LDH released; Skin score, 21 days after the day of sensitizing with picryl chloride [10]: 0.75; Skin score, 24 days after the day of sensitizing with picryl chloride [10]: 1.00; Skin score, 28 days after the day of sensitizing with picryl chloride [10]: 2.25; Skin score, 31 days after the day of sensitizing with picryl chloride [10]: 3.38; Skin score, 35 days after the day of sensitizing with picryl chloride [10]: 4.50; Skin score, 39 days after the day of sensitizing with picryl chloride [10]: 3.58*; Skin score, 42 days after the day of sensitizing with picryl chloride [10]: 4.38*; Skin score, 45 days after the day of sensitizing with picryl chloride [10]: 3.63*; recovery of skin wounds in the inflammation-induced part ([10]; picryl chloride-sensitized NC/Nga mice, gel application): cure/improvement of wounds induced by inflammation was observed; IC50 [11]: 1.2 µM; inhibitory action on the production of PGE2 (in words) [11, 12]: showed an inhibitory action
3 | OC[C@H]1O[C@@H](n2cnc3c(O)ncnc32)[C@H](O)[C@@H]1O [IN, inosine] | showed no difference | 13.2 pg/mL | 141 pg/mL | 142 pg/mL | 128 pg/mL | did not influence | > 200 µM | showed no difference | 150 ng/mL | 5643 Fluorescent intensity | 5611 Fluorescent intensity | 5633 Fluorescent intensity | 246 pg/mL | 243 pg/mL | 228 pg/mL | did not influence | showed no difference | 209 ng/mL | 0.34 absorbance | 0.34 absorbance | IC50 Concentration IL-6 ([6]; mouse macrophages, LPS and IFN-γ, 20 hours): Enhanced; LDH Activity ([9]; 10 μM): 0.32 absorbance; Skin score, 21 days after the day of sensitizing with picryl chloride [10]: 0.50; Skin score, 24 days after the day of sensitizing with picryl chloride [10]: 0.50; Skin score, 28 days after the day of sensitizing with picryl chloride [10]: 2.50; Skin score, 31 days after the day of sensitizing with picryl chloride [10]: 3.22; Skin score, 35 days after the day of sensitizing with picryl chloride [10]: 5.20; Skin score, 39 days after the day of sensitizing with picryl chloride [10]: 5.66; Skin score, 42 days after the day of sensitizing with picryl chloride [10]: 6.00; Skin score, 45 days after the day of sensitizing with picryl chloride [10]: 5.43; IC50 [11]: > 200 µM
